From patent publication US5135952A, “Antiinflammatory and/or antiallergic methods” (Senju Pharmaceutical Co., ltd., priority 1989, dated 1992)

Columns and labels:
[1] = test system: carrageenan-induced conjunctival edema; assay: Effect on Rat Carrageenan-Induced Conjunctival Edema; type: in vivo, rat (male Wistar); details: for effect on rat carrageenan-induced conjunctival edema, in words: DCE-GS 3, 10, 30 mg/kg i.v., ester derivatives and GSH 30 mg/kg; for Edema weight / % Inhibition (edema weight): 3 hours, n = 10; for Edema weight: mean ± S.E.
Experimental: Effect on Rat Carrageenan-Induced Conjunctival Edema Male Wistar rats weighing about 130 g were used in the experiment. S-(α,β-Dicarboxyethyl)glutathione (hereinafter referred to as DCE-GS) dissolved in physiological saline and adjusted with sodium hydrochloride to pH 7 was administered in doses of 3, 10 and 30 mg/kg to rats through the caudal vein (control group: physiological saline). […] One minute later, 50 μl of 1% carrageenan solution was injected beneath the palpebral conjunctiva of the rat under pentobarbital anesthesia. After three hours, each rat was sacrificed and conjunctival edema was isolated and weighted.

[2] = hygroscopicity; type: physicochemical
[3] = test system: platelet; details: previously discovered by the inventors (Japanese Kokai 63-8337/1988; Japanese Application 1-79956/1989); cited from earlier work
[4] = previously discovered by the inventors (Japanese Kokai 63-8337/1988; Japanese Application 1-79956/1989); cited from earlier work
[5] = test system: male ddY mice; assay: Intravenous Acute Toxicity Study; type: in vivo, mouse (male ddY); details: i.v.; 100, 200, 400, 800 and 1,600 mg/kg; seventy-two-hour observation; groups of 5
Experimental: Intravenous Acute Toxicity Study
The intravenous acute toxicity study of DCE-GS was conducted in male ddY mice, weighing about 20 g, in groups of 5. The doses were 100, 200, 400, 800 and 1,600 mg/kg (common ratio 2). All the injections were adjusted with 1N sodium hydrochloride to pH 7.

[6] = test system: rat peritoneal mast cells; assay: Inhibitory Effect on the Release of Histamine from Rat Peritoneal Exudate Cells (Compound 48/80-induced); type: cell-based, rat (male SD); details: for % Release (histamine): mean ± S.E., boiled control specimen = 100%, control 75.0 ± 6.7
Experimental: Inhibitory Effect on the Release of Histamine from Rat Peritoneal Exudate Cells
(1) Preparation of rat peritoneal cell suspension
Male SD rats weighing 250 to 280 g were used. The rat peritoneal cells were collected and isolated according to the method of Sullivan et al. First, the rat was bled to death by decapitation and immediately the hair of the abdomen was shaved, the skin was incised a few centimeters, and 10 ml of mast cell medium (MCM) was injected into the peritoneal cavity using a 18-G needle while picking up the muscle with tweezers, followed by 90-sec gentle massage. Then, the abdomen was opened to collect as much ascites as possible using a Terumo syringe. The ascites contaminated with blood was not used in the experiment. The ascites was layered in a polycarbonate tube containing 2 ml of 40% Ficoll 400 (Pharmacia) dissolved in MCM, allowed to stand at room temperature for 30 minutes, and centrifuged at 700 rpm at 4° C. for 10 minutes. Then, the sediment in the upper layer of Ficoll 400 was pipetted and washed three times with about 7 ml of MCM. The cells were counted with a Burker-Turk cytometer and using MCM as a diluent, a cell suspension of about 10^5 cells/ml (rat peritoneal cell suspension) was prepared. Mast cells were identified by staining intracellular granules with 0.05% toluidine blue.
(2) Release of histamine from mast cells
After 0.8 ml of rat peritoneal cell suspension was preincubated at 37° C. for 10 minutes, 0.1 ml of the test drug was added. The system was incubated for 5 minutes, at the end of which time 0.1 ml of 10 μg/ml of Compound 48/80 (Sigma) in physiological saline was added. After 10 minutes' incubation, the reaction mixture was cooled in ice-water for 10 minutes to terminate the reaction and centrifuged at 700 rpm at 4° C. for 5 minutes. Then, histamine in the supernatant was determined by HPLC in accordance with the method of Shore et al. as partially modified.

[7] = test system: passive anaphylaxis of the back of the rat; assay: Effect on Passive Anaphylaxis of the Back of the Rat; type: in vivo, rat (male Wistar); details: for Area, Inhibition (%) / Dye, Inhibition (%) / Area (of stain) / Dye: 30 minutes; for Area (of stain) / Dye: mean ± S.E., n = 4 or 5; for Area (of stain): saline 926 ± 65; for Dye: saline 767 ± 87
Experimental: Effect on Passive Anaphylaxis of the Back of the Rat
Male Wistar rats weighing about 130 g were used in the experiment. The back hair of each rat was clipped with clippers. The rat antiserum was injected intradermally at the back of the rat. After three days, DCE-GS was administered in doses of 3, 10 and 30 mg/kg (physiological saline to controls) into the caudal vein and after one minute 1 ml of a 50:50 (v/v) mixture of the antigen 1% ovalbumin and 2% Evans blue was administered intravenously to induce passive anaphylaxis. After 30 minutes, the rat was sacrificed and the stained area was determined. The pertinent area was removed and the dye was extracted with 20 ml of formaldehyde for determination.

[8] = Table 2, 30 mg/kg, *p < 0.01, **p < 0.001 vs saline (73.7 ± 2.9)

Compound: N[C@@H](CCC(=O)N[C@@H](CS)C(=O)NCC(=O)O)C(=O)O [GSH, glutathione, reference compound]
- effect on rat carrageenan-induced conjunctival edema, in words [1]: no antiinflammatory effect
- Edema weight [1, 8]: 74.8 ± 3.5 mg
- % Inhibition (edema weight) ([1]; Table 2, 30 mg/kg): -1.5%

Compound: CCOC(=O)CC(SC[C@H](NC(=O)CC[C@H](N)C(=O)O)C(=O)NCC(=O)O)C(=O)OCC (stereo partly drawn) [DCE-GS diethyl ester sodium, S-(diethyl-α,β-dicarboxyethyl)glutathione sodium]
- Edema weight [1, 8]: 49.7 ± 2.6 mg
- % Inhibition (edema weight) ([1]; Table 2, 30 mg/kg): 32.6%

Compound: S-(monoethyl-α,β-dicarboxyethyl)glutathione sodium [DCE-GS monoethyl ester sodium]
- Edema weight [1, 8]: 58.5 ± 2.0 mg
- % Inhibition (edema weight) ([1]; Table 2, 30 mg/kg): 20.6%

Compound: CCCCOC(=O)CC(SC[C@H](NC(=O)CC[C@H](N)C(=O)O)C(=O)NCC(=O)O)C(=O)OCCCC (stereo partly drawn) [DCE-GS di-n-butyl ester sodium, S-(di-n-butyl-α,β-dicarboxyethyl)glutathione sodium]
- hygroscopicity [2]: hygroscopic
- Edema weight [1, 8]: 60.9 ± 2.8 mg
- % Inhibition (edema weight) ([1]; Table 2, 30 mg/kg): 17.4%

Compound: N[C@@H](CCC(=O)N[C@@H](CSC(CC(=O)O)C(=O)O)C(=O)NCC(=O)O)C(=O)O (stereo partly drawn) [DCE-GS, S-(α,β-Dicarboxyethyl)glutathione]
- platelet aggregation inhibitory activity [3]: platelet aggregation inhibitory activity
- antihemogglutination activity [4]: antihemogglutination activity
- death / abnormal behavior [5]: neither death nor abnormal behavior
- % Release (histamine) ([6]; 10^-3 M, n = 3): 2.9 ± 3.4%
- % Release (histamine) ([6]; 10^-4 M, n = 3): 59.4 ± 6.2%
- % Release (histamine) ([6]; 10^-5 M, n = 3): 73.4 ± 6.5%
- inhibition of histamine release, in words ([6]; 10^-5 to 10^-3 M): inhibited histamine release concentration-dependently
- inhibition at 1000 µM ([6]; Rattus norvegicus, Mast cell, 10^-3 M, n = 3): 96.1%
- inhibition at 100 µM ([6]; Rattus norvegicus, Mast cell, 10^-4 M, n = 3): 20.8%
- inhibition at 10 µM ([6]; Rattus norvegicus, Mast cell, 10^-5 M, n = 3): 2.1%
- effect on rat carrageenan-induced conjunctival edema, in words [1]: inhibited rat carrageenan-induced conjunctival edema dose-dependently
- Edema weight ([1]; Table 1, 3 mg/kg i.v. (caudal vein), *p < 0.001 vs saline (71.7 ± 3.6)): 50.5 ± 1.9 mg
- % Inhibition (edema weight) ([1]; Table 1, 3 mg/kg i.v.): 29.6%
- Edema weight ([1]; Table 1, 10 mg/kg i.v., *p < 0.001 vs saline (71.7 ± 3.6)): 44.9 ± 2.4 mg
- % Inhibition (edema weight) ([1]; Table 1, 10 mg/kg i.v.): 37.4%
- Edema weight ([1]; Table 1, 30 mg/kg i.v., *p < 0.001 vs saline (71.7 ± 3.6)): 44.9 ± 2.2 mg
- % Inhibition (edema weight) ([1]; Table 1, 30 mg/kg i.v.): 37.4%
- Area, Inhibition (%) ([7]; 3 mg/kg i.v.): 6.5%
- Dye, Inhibition (%) ([7]; 3 mg/kg i.v.): 17.5%
- Area (of stain) ([7]; 3 mg/kg i.v., *p < 0.05): 866 ± 195 mm^2
- Dye ([7]; 3 mg/kg i.v.): 633 ± 111 μg/site
- Area, Inhibition (%) ([7]; 10 mg/kg i.v.): 30.5%
- Dye, Inhibition (%) ([7]; 10 mg/kg i.v.): 38.5%
- Area (of stain) ([7]; 10 mg/kg i.v., **p < 0.01): 644 ± 88 mm^2
- Dye ([7]; 10 mg/kg i.v.): 472 ± 98 μg/site
- Area, Inhibition (%) ([7]; 30 mg/kg i.v.): 47.2%
- Dye, Inhibition (%) ([7]; 30 mg/kg i.v.): 43.4%
- Area (of stain) ([7]; 30 mg/kg i.v., ***p < 0.001): 489 ± 47 mm^2
- Dye ([7]; 30 mg/kg i.v., *p < 0.05): 434 ± 77 μg/site
- inhibition of area of stain and amount of dye, in words ([7]; 3, 10 and 30 mg/kg i.v.): inhibited both the area of stain and the amount of dye on the rat back dose-dependently
